In patent US8969304B2, “Compositions and methods for the prevention of cancer in high risk patients” (The Institute for Cancer Research, priority 2010, dated 2015):
Residues, ends and D or L forms follow the SMILES beside them. No end group written: not given here.

Experiments:
[1] = tested on: MCF-10F cells; settings: cells treated with E2; cited from earlier work
[2] = tested on: GPR30; test: real time RT-PCR, GPR30 gene expression; type: cell-based, human; settings: treated MCF-10F cells, data not shown
[3] = target: T1, LH/hCG binding to rat ovarian membranes (Rattus norvegicus, UniProt P16235); settings: among two series of overlapping peptides of hCG (ref. 15); cited from earlier work
T1 construct: from tissue; host or cells: rat ovarian membranes
T1 sequence (P16235 27-700): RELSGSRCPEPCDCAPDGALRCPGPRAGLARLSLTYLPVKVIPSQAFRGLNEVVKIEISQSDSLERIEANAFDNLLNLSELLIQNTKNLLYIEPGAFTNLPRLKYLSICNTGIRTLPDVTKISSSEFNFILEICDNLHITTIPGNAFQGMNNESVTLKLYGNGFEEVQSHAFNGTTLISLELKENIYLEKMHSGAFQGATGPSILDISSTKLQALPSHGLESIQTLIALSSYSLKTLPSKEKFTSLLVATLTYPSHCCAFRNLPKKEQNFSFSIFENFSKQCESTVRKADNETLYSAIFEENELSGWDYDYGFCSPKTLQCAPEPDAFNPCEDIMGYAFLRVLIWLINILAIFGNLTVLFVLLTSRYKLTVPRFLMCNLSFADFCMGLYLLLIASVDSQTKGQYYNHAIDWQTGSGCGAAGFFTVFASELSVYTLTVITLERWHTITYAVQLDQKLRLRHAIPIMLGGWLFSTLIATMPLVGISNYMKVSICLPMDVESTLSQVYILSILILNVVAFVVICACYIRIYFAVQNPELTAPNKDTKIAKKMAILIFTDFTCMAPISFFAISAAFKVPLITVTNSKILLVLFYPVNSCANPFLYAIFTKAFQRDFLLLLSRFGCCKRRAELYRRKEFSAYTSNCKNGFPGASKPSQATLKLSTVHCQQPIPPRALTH

[4] = tested on: CXCR1; test: real time RT-PCR, CXCR1 gene expression; type: cell-based, human
[5] = tested on: LHCGR; test: real time RT-PCR, LHCGR gene expression; type: cell-based, human
[6] = tested on: FAK/AKT/FOXO3A pathway; test: FAK, AKT and FOXO3A expression (unpublished data); type: cell-based; settings: previous results
[7] = tested on: MCF-10F cells; type: cell-based, human
[8] = target: T2, LH/hCG-R in MA-10 cells (Mus musculus, UniProt P30730); test: intracellular cAMP production (enzyme immunoassay); type: cell-based; settings: 2.5 μg r-hCG/ml or 20 μM PPFC-879-81-95
T2 construct: endogenous in cells; host or cells: MA-10 mouse Leydig tumor cells
T2 sequence (P30730 27-700): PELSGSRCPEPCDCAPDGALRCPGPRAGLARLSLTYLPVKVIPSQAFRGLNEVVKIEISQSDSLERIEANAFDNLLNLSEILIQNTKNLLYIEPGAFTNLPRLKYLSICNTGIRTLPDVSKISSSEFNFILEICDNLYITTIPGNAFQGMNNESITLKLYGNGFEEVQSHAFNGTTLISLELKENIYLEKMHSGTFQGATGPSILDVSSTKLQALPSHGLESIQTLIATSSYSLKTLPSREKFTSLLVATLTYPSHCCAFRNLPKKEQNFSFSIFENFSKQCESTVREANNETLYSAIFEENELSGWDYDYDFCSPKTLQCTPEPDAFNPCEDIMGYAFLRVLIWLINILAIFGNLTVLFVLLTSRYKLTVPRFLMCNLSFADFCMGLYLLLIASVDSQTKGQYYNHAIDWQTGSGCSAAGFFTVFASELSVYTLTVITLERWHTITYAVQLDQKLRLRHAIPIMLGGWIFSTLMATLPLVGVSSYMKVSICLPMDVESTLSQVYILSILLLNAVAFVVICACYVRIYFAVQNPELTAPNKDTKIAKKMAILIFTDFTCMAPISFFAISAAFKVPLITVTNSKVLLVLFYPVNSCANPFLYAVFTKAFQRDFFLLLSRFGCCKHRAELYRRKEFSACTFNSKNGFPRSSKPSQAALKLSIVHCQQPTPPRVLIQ

[9] = target: T3, LH/hCG-R in MCF10F cells (Homo sapiens, UniProt P22888); test: intracellular cAMP production (enzyme immunoassay); type: cell-based; settings: 2.5 μg r-hCG/ml or 20 μM PPFC-879-81-95
T3 construct: For verifying the presence and functionality of the receptor in normal and transformed MCF10F cells; endogenous in cells; host or cells: MCF10F human breast epithelial cells
T3 sequence (P22888 27-699): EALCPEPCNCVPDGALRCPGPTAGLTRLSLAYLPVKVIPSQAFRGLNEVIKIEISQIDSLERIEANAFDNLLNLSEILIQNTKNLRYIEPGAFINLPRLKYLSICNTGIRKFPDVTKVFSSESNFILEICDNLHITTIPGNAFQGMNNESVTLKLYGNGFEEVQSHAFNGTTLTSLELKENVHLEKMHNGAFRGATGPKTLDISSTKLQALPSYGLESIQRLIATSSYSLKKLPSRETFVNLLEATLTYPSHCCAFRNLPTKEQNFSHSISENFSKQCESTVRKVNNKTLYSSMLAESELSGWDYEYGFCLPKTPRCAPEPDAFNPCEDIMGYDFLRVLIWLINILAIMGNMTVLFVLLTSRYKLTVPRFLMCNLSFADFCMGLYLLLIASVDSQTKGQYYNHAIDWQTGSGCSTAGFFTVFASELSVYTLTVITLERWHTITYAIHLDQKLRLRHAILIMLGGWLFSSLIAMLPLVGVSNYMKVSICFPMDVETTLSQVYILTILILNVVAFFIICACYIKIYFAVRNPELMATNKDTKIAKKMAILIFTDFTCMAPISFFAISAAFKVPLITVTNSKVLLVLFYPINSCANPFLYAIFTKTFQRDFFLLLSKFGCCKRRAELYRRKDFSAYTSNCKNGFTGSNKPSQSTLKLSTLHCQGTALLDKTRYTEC

[10] = tested on: MCF-7; test: invasiveness (cells traversing a matrigel membrane); type: cell-based, human
Source text: (§1) FIG. 2: (A) Effect of 17b-estradiol (E2), r-hCG and PPFC-879-81-95 peptide on formation of primary, secondary, and tertiary ducts by MCF10F cells grown in a collagen matrix. DMSO served as control. Ordinate, percentage of structures. (B) Effect of r-hCG and hCG peptide on colony formation. Only DMSO-treated (control) E2-cells formed solid masses. (C) Effect of r-hCG and hCG peptide on the invasive index of MCF10F, E2-transformed, E2T4, MCF-7 and MDA-MB-435 cells. Ordinate, number of cells traversing a matrigel membrane.
(§2) The cells grow along hollow branches forming ductules lined by a monolayer of epithelial cells. […] For these studies, we designed oligopeptides of the hCG beta subunit and had them synthesized by AAPPTec, LLC, Louisville, Ky. We selected a 15 aa peptide with a sequence “N”-[…]-“C” (SEQ ID NO: 2) that encompasses aa 81-95 and was designated PPFC-879-81-95.

[11] = tested on: MCF-10F cells; test: as above; type: cell-based, human
Source text: as §1, §2

[12] = tested on: tumor derived E2T4 cells; test: as above; type: cell-based, human
Source text: as §1, §2

[13] = tested on: E2-transformed MCF-10F cells; test: as above; type: cell-based, human
Source text: as §1, §2

[14] = tested on: MDA-MB-435; test: as above; type: cell-based, human
Source text: as §1, §2

[15] = tested on: E2-transformed MCF-10F cells; test: solid mass formation and branching of E2-transformed MCF-10F cells in collagen; type: cell-based, human; settings: compared with r-hCG
[16] = tested on: human breast epithelial cells; test: genomic analysis of r-hCG and peptide-treated cells; type: cell-based
Source text: The down-regulation of BMI1 supports the concept that the preventive effect of hCG results from the shifting of the stem cell 1 to stem cell 2 (Russo, J., et al., (2006) Front Biosci., 11:151-172). This is only one example of identification of the molecular determinants of hormone specificity which provide the means to target the CG/LH-R for activation thereby conferring the protective effects against breast cancer.

[17] = tested on: MCF-10F cells; test: ductulogenesis and branching of MCF-10F cells in 3D collagen matrix; type: cell-based, human; settings: MCF-10F cells in collagen matrix, added to the culture medium
Source text: as §2

For `C[C@]12CC[C@@H]3c4ccc(O)cc4CC[C@H]3[C@@H]1CC[C@@H]2O` [E2, 17-β-estradiol], the “structures formed by MCF-10F cells in collagen after treatment” value [1] is listed as “forming instead spherical structures with a multilayered epithelium that exhibits marked atypia”.

For `CC(C)C[C@H](NC(=O)[C@H](C)NC(=O)[C@@H](NC(=O)[C@@H]1CCCN1C(=O)[C@H](Cc1ccccc1)NC(=O)[C@@H](N)CO)C(C)C)C(=O)N[C@@H](CO)C(=O)N[C@@H](CS)C(=O)N[C@@H](CCCNC(=N)N)C(=O)N[C@@H](CS)C(=O)NCC(=O)N1CCC[C@H]1C(=O)N[C@@H](CS)C(=O)N[C@@H](CCCNC(=N)N)C(=O)N[C@@H](CCCNC(=N)N)C(N)=O` [peptide, SFP VAL SCR CGP CRR-NH2] (H-SFPVALSCRCGPCRR-NH2; N-terminus assumed), the “GPR30 mRNA expression” value [2] is given as “undetectable or very low values”, the “inhibition of 125I-labeled hCG binding” value [3] is given as “most potent inhibitor of LH/hCG binding” and the CXCR1 expression ([4]; MCF-10F, all along the treatment) is given as “down-regulated”. The “CXCR1 down-regulation, peptide versus hCG” value ([4]; last day of treatment (15), p<0.01) was “down-regulation of the receptor was more apparent in the peptide-treated cells than in hCG treated cells”, the “hCG receptor (LHCGR) gene expression” value ([5]; MCF-10F, from the first day of treatment on) was “up-regulated” and the “LHCGR gene expression, peptide versus hCG” value ([5]; last day of treatment (15th), p=0.06) was “tendency of the peptide to induce a higher levels gene expression than hCG”. The “FAK and AKT” value [6] was “decrease”, the FOXO3A expression [6] was “up-regulate” and the “cell proliferation inhibition, peptide versus hCG” value ([7]; days 10 and 12, p<0.02) was “more potent cell proliferation inhibitor than hCG”. For the same molecule, the “decrease in the number of viable cells” value ([7]; human, 20 μM) was 36-72%.

In the case of “Ser-Tyr-Ala-Val-Ala-Leu-Ser-Cys-Gln-Cys-Ala-Leu-Cys-Arg-Arg (NH2) (SYAVALSCQCALCRR-NH2; cysteine pairing not given here) [PPFC-879-81-95, 15 aa peptide of the hCG beta subunit, aa 81-95]”, the “intracellular cAMP production” value [8] is reported as “time-dependent increase”, the “intracellular cAMP production” value [9] is reported as “time-dependent increase” and the invasiveness [10] is reported as “inhibited invasiveness”. The invasiveness [11] was “inhibited invasiveness”, the invasiveness [12] was “inhibited invasiveness” and the invasiveness [13] was “inhibited invasiveness”. For the same molecule, the invasiveness [14] was “inhibited invasiveness”, the “formation of solid masses in collagen” value [15] was “abrogated more efficiently than r-hCG” and the “gene clusters activated or downregulated” value [16] was “induced activation or downregulation of the same clusters of genes that were modified by either parity or r-hCG treatment”. For the same molecule, the “number of secondary and tertiary ducts (branching pattern)” value [17] was “increasing the number of secondary and tertiary ducts”.
